20 compounds from patent US12037344B2, “NLRP3 modulators” (INNATE TUMOR IMMUNITY, INC., priority 2018, dated 2024) can be followed below.

The test system of one assay is THP-1 cells. The assay is described as follows: Measurement of IL-1β production, hTRF protocol (second alternative procedure), THP-1 cells. To be noted: Homo sapiens. It is filed as cell-based, human. On the procedure: Measurement of IL-1β Production—hTRF Protocol (Second Alternative Procedure)
Serial dilutions of compounds in DMSO were added to low volume 384 well plates at 100 nl/well using an ECHO 550 acoustic dispenser (Labcyte) to achieve final starting concentration of 10 μM in assay.
THP-1 cells in RPMI (Gibco, 11875) media with 10% FBS at a density of 1×10^6 cell/ml in a T175 flask were treated with a final concentration of phorbol 12-myristate 13-acetate (PMA) (Sigma, P1585) of 50 ng/ml overnight at 37° C. at 5% CO2 for differentiation. Cells were harvested the next day after rinsing well with dPBS using 0.5% trypsin. A cell solution was prepared of 1×10^6 cells/ml for 50,000 cells in 50 μl/well in RPMI media with 2% FBS. Cells were plated using a multichannel pipette onto the compound dilutions in Greiner, 384 well, black clear bottom tissue culture treated plates (781090). The plates were incubated in 37° C. incubator at 5% CO2 for 2 hours.
After the 2 hour incubation, the cell plates were spun in the centrifuge for 5 minutes at 1200 rpm. Using the Felix (CyBio), 8 μl of the supernatant was transferred to 384 well, low volume, white proxy plates. (Perkin Elmer, 6008230). A human IL1beta hTRF kit was used to analyze the supernatant (CISBIO, 62HIL1BPEG). The kit instructions were followed for preparing the IL1Beta standard curve and then the antibodies from the kit were diluted 1:40 rather than 1:20 as kit instructed. Once combined, the antibodies were added across the plates, 5 μl/well. The plates were sealed and incubated at 4° C. overnight. The plates were then read on the Perkin Elmer EnVision at 665/615 nm using the hTRF laser.

Another assay addresses T1, TLR7 (Homo sapiens, UniProt Q9NYK1).
T1 construct: human HEK-Blue cells co-expressing a TLR7 or TLR8 gene
T1 sequence (Q9NYK1 27-1049): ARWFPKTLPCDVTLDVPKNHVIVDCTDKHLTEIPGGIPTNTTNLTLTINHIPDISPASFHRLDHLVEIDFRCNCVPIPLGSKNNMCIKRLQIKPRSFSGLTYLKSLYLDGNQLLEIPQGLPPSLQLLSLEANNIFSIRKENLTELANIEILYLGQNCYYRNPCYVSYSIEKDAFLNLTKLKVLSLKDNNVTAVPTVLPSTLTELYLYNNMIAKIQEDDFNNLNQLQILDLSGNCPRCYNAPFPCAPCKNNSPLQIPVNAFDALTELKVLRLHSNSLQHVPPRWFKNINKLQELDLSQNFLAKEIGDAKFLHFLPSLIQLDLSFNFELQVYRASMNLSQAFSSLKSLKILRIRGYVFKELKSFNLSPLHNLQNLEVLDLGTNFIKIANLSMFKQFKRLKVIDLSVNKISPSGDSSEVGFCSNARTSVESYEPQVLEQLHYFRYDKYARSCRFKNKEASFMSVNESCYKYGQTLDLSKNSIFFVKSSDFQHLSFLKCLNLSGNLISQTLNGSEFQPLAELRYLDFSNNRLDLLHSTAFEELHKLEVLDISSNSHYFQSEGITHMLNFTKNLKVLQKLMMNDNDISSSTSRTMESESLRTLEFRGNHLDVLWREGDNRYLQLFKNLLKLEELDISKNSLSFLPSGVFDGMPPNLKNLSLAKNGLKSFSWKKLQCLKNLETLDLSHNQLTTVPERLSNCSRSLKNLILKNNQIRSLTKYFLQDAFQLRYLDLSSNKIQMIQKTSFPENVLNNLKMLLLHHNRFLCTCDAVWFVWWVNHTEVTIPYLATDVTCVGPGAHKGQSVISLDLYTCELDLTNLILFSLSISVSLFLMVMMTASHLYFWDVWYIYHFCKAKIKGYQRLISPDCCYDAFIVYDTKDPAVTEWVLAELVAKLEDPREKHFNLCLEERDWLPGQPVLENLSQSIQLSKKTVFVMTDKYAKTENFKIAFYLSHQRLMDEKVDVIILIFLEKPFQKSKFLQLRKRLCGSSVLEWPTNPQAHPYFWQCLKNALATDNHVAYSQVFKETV
The assay is described as follows: In vitro human TLR7 binding reporter assay (HEK-Blue, NF-kB/AP1-inducible SEAP). Format: cell-based. Particulars: read-out: TLR7 Agonist EC50. On the procedure: (§1) In Vitro Human TLR7 and TLR8 Binding Reporter Assays
(§2) Logarithmically-growing human HEK-Blue cells co-expressing a TLR7 or TLR8 gene and a NF-kB/AP1-inducible SEAP (secreted embryonic alkaline phosphatase; Invivogen, San Diego, CA) reporter gene are added to individual wells of a 384-well plate (15,000 cells per 20 μL per well) and maintained for 24 h at 37° C., 5% CO2. Test compounds or DMSO are distributed to separate wells the next day using acoustic liquid handling technology (100 nL per well) and cells are subsequently incubated for 18 h at 37° C., 5% CO2. Cellular SEAP production is measured using an Envision plate reader instrument thirty minutes after adding freshly-made Quanti-Blue reagent (prepared by following manufacturer instructions; Invivogen, San Diego, CA) to the HEK-Blue TLR Nf-kB-SEAP cell reactions. All EC50 values (half-maximal effective concentration) are determined using proprietary data analysis software. Normalized EC50 value=absolute value determined by setting 100% Ymax using a reference standard RLU (relative light unit) values from cells treated with 50 μM of the reference standard.

For the next assay, the target named is T2, TLR8 (Homo sapiens, UniProt Q9NR97).
T2 construct: human HEK-Blue cells co-expressing a TLR7 or TLR8 gene
T2 sequence (Q9NR97 27-1041): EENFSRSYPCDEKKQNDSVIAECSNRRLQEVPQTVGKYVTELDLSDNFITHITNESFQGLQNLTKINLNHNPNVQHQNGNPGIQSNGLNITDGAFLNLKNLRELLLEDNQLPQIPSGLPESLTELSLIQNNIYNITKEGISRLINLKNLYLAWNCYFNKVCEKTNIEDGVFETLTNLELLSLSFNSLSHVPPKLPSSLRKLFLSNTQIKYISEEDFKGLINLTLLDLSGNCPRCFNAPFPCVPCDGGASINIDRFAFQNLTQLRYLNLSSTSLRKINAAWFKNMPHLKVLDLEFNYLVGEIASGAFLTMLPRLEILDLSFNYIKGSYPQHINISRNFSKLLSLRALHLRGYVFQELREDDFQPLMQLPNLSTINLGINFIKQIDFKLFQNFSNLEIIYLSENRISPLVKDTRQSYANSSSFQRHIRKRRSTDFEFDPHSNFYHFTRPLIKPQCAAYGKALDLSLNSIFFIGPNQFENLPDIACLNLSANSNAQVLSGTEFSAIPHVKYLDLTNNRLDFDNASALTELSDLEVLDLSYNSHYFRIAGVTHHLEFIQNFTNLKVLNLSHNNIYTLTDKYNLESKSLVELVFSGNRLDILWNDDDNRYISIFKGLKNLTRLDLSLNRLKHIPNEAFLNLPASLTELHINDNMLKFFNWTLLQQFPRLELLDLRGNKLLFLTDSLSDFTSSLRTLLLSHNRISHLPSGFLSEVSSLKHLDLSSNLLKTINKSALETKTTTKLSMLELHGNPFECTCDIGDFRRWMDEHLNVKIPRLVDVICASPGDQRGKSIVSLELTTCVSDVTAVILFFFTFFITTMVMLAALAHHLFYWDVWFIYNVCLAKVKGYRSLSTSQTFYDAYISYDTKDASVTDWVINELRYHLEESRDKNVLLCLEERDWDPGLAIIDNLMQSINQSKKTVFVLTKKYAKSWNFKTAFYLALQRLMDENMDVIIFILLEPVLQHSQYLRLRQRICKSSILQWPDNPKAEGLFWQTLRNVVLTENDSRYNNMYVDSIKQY
The assay is described as follows: In vitro human TLR8 binding reporter assay (HEK-Blue, NF-kB/AP1-inducible SEAP). Format: cell-based. To be noted: read-out: TLR8 Agonist EC50. How it is done:
as §1, §2

Where [1] appears, read: THP-1, IL-1β production, human cells, read-out: NLRP3 hILIB EC50.
Setting [2] is: THP-1, IL-1β production, human, read-out: NLRP3 hILIB EC50.

Where two headings read alike, the source gives them in different places.

Regarding `CC(=O)NC(C)Cn1cc2c(N)nc3cc(-n4cccn4)ccc3c2n1` (stereo not drawn) [Example 424], the EC50 in the assay on THP-1 cells (setting [1]) is 3.21 µM; at TLR7 (activity range), above 100 µM; on TLR8 (activity range) it was above 100 µM.

Regarding `Nc1nc2cc(-c3cc[nH]n3)ccc2c2nn(CCOCCO)cc12` [Example 309], the figures for the EC50 in the assay with THP-1 cells (setting [2]), at TLR7 (activity range class) and on TLR8 (activity range class) were 0.75 µM, above 100 µM and above 100 µM, respectively.

On to `NCc1cc2c(N)nc3cc(-c4ccn[nH]4)ccc3c2[nH]1` [Example 438], for which the results for the EC50 in the assay on THP-1 cells (setting [1]), at TLR7 (activity range) and on TLR8 (activity range) were 0.99 µM, above 100 µM and above 100 µM, respectively.

Consider `Nc1nc2cc(-c3cc[nH]n3)ccc2c2cn(CCNCc3ccc(Cl)cc3)nc12` [Example 107], for which the EC50 with THP-1 cells (setting [2]) was 2.63 µM; at TLR7 (activity range class), above 100 µM; on TLR8 (activity range class) it was above 100 µM.

Take `Nc1nc2cc(-c3cc[nH]n3)ccc2c2cn(CCNC(=O)c3ccc(OC(F)(F)F)cn3)nc12` [Example 67]: the EC50 was 0.38 µM in the assay with THP-1 cells (setting [2]), above 100 µM at TLR7 (activity range class) and above 100 µM on TLR8 (activity range class).

`Nc1nc2cc(-c3cc[nH]n3)ccc2c2nn([C@H]3CC[C@H](O)CC3)cc12` [Example 393]: the EC50 is 1.73 µM with THP-1 cells (setting [2]), above 100 µM on TLR7 (activity range class) and above 100 µM at TLR8 (activity range class).

Consider `Nc1nc2cc(-c3ccn[nH]3)ccc2c2oc(CCCO)nc12` [Example 147, 3-[4-amino-7-(1H-pyrazol-3-yl)-[1,3]oxazolo[4,5-c]quinolin-2-yl]propan-1-ol], for which the EC50 was 6.09 µM in the assay on THP-1 cells (THP-1, read-out: NLRP3 hILIB EC50); above 100 µM on TLR7 (activity range class); above 100 µM on TLR8 (activity range class).

Regarding `Nc1nc2cc(-c3cc[nH]n3)ccc2c2nn(CC3CC(F)(F)C3)cc12` [Example 335], the EC50 in the assay with THP-1 cells (setting [2]) was 0.39 µM; on TLR7 (activity range class) it was above 100 µM; at TLR8 (activity range class), above 100 µM.

As for `CC(C)(CO)NC(=O)C(C)(C)n1cc2c(N)nc3cc(-c4cc[nH]n4)ccc3c2n1` [Example 522], the figures for the EC50 in the assay on THP-1 cells (setting [1]), at TLR7 (activity range) and at TLR8 (activity range) were 12.2 µM, above 100 µM and above 100 µM, respectively.

Take `CC(C)(O)CCn1cc2c(N)nc3cc(-c4ccn[nH]4)ccc3c2n1` [Example 285]: the EC50 is 0.63 µM in the assay with THP-1 cells (setting [2]), above 100 µM on TLR7 (activity range class) and above 100 µM on TLR8 (activity range class).

In the case of `Nc1nc2cc(-c3ccn[nH]3)ccc2c2nn(CC3(C(=O)NCc4ccccn4)CC3)cc12` [Example 605], the EC50 in the assay with THP-1 cells (setting [1]) was 22.4 µM; at TLR7 (activity range), above 100 µM; on TLR8 (activity range) it was above 100 µM.

For the compound `Nc1nc2cc(-c3ccn[nH]3)ccc2c2sc(CCNC(=O)C3CCO3)nc12` (stereo not drawn) [Example 137, N-[2-[4-amino-7-(1H-pyrazol-5-yl)-[1,3]thiazolo[4,5-c]quinolin-2-yl]ethyl]oxetane-2-carboxamide], the EC50 in the assay on THP-1 cells (setting [2]) is 1.67 µM; at TLR7 (activity range class), above 100 µM; at TLR8 (activity range class), above 100 µM.

Consider `COC1CCN(C(=O)C(C)n2cc3c(N)nc4cc(-c5ccn[nH]5)ccc4c3n2)CC1` (stereo not drawn) [Example 564], for which the 50% effective concentration (EC50) was 15.5 µM in the assay with THP-1 cells (setting [1]), above 100 µM on TLR7 (activity range) and above 100 µM on TLR8 (activity range).

As for `Cc1nc(C(=O)NCCc2cc3c(N)nc4cc(-c5cc[nH]n5)ccc4c3[nH]2)cs1` [Example 495], the values for the EC50 in the assay on THP-1 cells (setting [1]), at TLR7 (activity range) and on TLR8 (activity range) were 0.45 µM, above 100 µM and above 100 µM, respectively.

Turning to `C[C@H](O)Cn1cc2c(N)nc3cc(-c4cc[nH]n4)c(F)cc3c2n1` [Example 405], the EC50 was 0.69 µM in the assay with THP-1 cells (setting [1]), above 100 µM at TLR7 (activity range) and above 100 µM at TLR8 (activity range).

As for `Nc1nc2cc(-c3cc[nH]n3)ccc2c2cn(CCN3CC4COCC4C3)nc12` (stereo not drawn) [Example 30, 2-(2-{hexahydro-1H-furo[3,4-c]pyrrol-5-yl}ethyl)-7-(1H-pyrazol-3-yl)-2H-pyrazolo[3,4-c]quinolin-4-amine], the EC50 in the assay on THP-1 cells (setting [2]) was 0.77 µM; at TLR7 (activity range class) it was above 100 µM; at TLR8 (activity range class), above 100 µM.

Consider `COC(C)Cn1cc2c(N)nc3cc(-c4cc[nH]n4)ccc3c2n1` (stereo not drawn) [Example 331], for which the EC50 with THP-1 cells (setting [2]) is 0.08 µM; on TLR7 (activity range class) it was above 100 µM; at TLR8 (activity range class), above 100 µM.

With `Nc1nc2cc(-c3cc[nH]n3)ccc2c2nn([C@@H]3CC[C@H](O)C3)cc12` (relative stereo) [Example 210, cis-3-(4-amino-7-(1H-pyrazol-3-yl)-2H-pyrazolo[4,3-c]quinolin-2-yl)cyclopentan-1-ol], the EC50 in the assay with THP-1 cells (setting [2]) was 0.33 µM; on TLR7 (activity range class), above 100 µM; on TLR8 (activity range class), above 100 µM.

`Nc1nc2cc(-c3cc[nH]n3)ccc2c2[nH]c(CN3C[C@@H]4C[C@H]3CO4)cc12` [Example 471]: the values for the EC50 in the assay on THP-1 cells (setting [1]), on TLR7 (activity range) and on TLR8 (activity range) were 0.75 µM, above 100 µM and above 100 µM, respectively.

For `N#CCC1(Cn2cc3c(N)nc4cc(-c5cc[nH]n5)ccc4c3n2)CC1` [Example 466], the EC50 is 0.61 µM in the assay with THP-1 cells (setting [1]), above 100 µM at TLR7 (activity range) and above 100 µM at TLR8 (activity range).
